According to PMC13600695, “Identifying a novel mechanism of L-leucine uptake in Mycobacterium tuberculosis using a chemical genomic approach” (eLife, 2026):

Target: PpsB (6x His-PpsB) (Mycobacterium tuberculosis, UniProt P9WQE5)
Assay: biochemical

PpsB (6x His-PpsB), sequence (P9WQE5 whole entry): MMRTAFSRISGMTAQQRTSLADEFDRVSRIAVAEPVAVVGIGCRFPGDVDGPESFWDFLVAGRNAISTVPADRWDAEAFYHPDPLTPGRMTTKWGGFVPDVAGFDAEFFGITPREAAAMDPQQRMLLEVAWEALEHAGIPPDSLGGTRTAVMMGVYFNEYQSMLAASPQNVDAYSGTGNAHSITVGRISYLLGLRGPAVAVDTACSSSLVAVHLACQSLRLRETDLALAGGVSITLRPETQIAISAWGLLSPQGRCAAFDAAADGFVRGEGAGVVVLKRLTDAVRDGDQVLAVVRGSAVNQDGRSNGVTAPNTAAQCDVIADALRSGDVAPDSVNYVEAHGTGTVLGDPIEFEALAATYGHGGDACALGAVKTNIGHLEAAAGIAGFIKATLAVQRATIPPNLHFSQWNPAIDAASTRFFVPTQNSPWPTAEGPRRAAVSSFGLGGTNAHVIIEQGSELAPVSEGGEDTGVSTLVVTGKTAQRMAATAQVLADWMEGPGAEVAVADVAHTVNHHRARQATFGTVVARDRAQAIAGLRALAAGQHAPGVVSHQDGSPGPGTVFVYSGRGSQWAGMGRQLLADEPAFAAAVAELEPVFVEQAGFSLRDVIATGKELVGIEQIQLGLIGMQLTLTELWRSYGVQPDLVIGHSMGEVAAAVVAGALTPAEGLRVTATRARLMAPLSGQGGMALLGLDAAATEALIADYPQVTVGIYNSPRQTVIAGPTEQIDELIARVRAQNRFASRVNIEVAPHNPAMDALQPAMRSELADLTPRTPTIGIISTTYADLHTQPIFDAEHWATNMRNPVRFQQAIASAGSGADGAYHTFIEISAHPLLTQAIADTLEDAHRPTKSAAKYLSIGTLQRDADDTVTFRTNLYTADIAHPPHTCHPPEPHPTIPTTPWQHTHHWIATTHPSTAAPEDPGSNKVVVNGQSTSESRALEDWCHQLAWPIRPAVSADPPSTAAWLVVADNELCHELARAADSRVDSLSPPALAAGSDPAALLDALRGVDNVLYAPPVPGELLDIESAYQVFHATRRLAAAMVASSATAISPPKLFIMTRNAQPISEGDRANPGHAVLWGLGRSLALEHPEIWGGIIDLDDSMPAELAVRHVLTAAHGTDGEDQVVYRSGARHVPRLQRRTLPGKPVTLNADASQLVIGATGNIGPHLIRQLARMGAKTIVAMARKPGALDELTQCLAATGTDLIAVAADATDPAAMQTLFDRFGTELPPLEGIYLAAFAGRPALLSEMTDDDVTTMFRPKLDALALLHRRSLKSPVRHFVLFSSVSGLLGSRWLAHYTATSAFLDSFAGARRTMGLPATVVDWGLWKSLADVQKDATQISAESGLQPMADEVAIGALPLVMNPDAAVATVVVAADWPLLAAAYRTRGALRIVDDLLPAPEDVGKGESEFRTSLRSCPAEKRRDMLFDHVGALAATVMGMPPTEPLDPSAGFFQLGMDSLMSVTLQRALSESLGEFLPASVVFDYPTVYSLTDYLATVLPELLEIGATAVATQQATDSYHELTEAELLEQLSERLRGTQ

## C/C(=N\NC(=N)N)c1cc(NC(=O)CCCCCCCCC(=O)Nc2cc(/C(C)=N/NC(=N)N)cc(/C(C)=N/NC(=N)N)c2)cc(/C(C)=N/NC(=N)N)c1 [semapimod]
  Kd: 110 nM
